For data set [1], the system named is Mus musculus. The experiment in a line: Neuroleptic activity in po dosed STD-ddY mouse assessed as protection against methamphetamine-induced toxicity administered 1 hr before methamphetamine challenge measured after 24 hrs. Format: functional.
In data set [2] the test system is Mus musculus. The experiment in a line: Neuroleptic activity in po dosed STD-ddY mouse assessed as inhibition of spontaneous motor activity by measuring number of revolution of cage for 5 mins. Format: functional.
Data set [3] concerns Rattus norvegicus. Briefly: Ratio of ED50 for po dosed albino Wistar rat assessed as induction of catalepsy to ED50 for methamphetamine-induced stereotyped behavior in po dosed albino Wistar rat.
The test system of data set [4] is Rattus norvegicus. The experiment in a line: Inhibition of methamphetamine-induced stereotyped behavior in po dosed albino Wistar rat administered 2 hrs before methamphetamine challenge measured up to 3 hrs. The format is functional.
Data set [5] relates to Rattus norvegicus. The experiment in a line: Inhibition of apomorphine-induced stereotyped behavior in po dosed albino Wistar rat administered 2 hrs before apomorphine challenge measured after 20 mins. The format is functional.
Data set [6] deals with Rattus norvegicus. The experiment in a line: Toxicity in po dosed albino Wistar rat assessed as induction of catalepsy after 8 hrs. The format is organism-based. As to conditions: in vivo.
A short description of data set [7]: Acute toxicity in po dosed STD-ddY mouse assessed as mortality up to 7 days. Format: organism-based. As to conditions: in vivo.
Data set [8] concerns Rattus norvegicus. Briefly: Ratio of ED50 for po dosed albino Wistar rat assessed as induction of catalepsy to ED50 for apomorphine-induced stereotyped behavior in po dosed albino Wistar rat.
Data set [9] deals with Rattus norvegicus. Briefly: Ratio of haloperidol ED50 to compound ED50 for methamphetamine-induced stereotyped behavior in po dosed albino Wistar rat. Format: functional.
For data set [10], the system named is Rattus norvegicus. The experiment in a line: Ratio of haloperidol ED50 to compound ED50 for apomorphine-induced stereotyped behavior in po dosed albino Wistar rat. Format: functional.
Data set [11] relates to Rattus norvegicus. Briefly: Ratio of benperidol ED50 to compound ED50 for apomorphine-induced stereotyped behavior in po dosed albino Wistar rat. The format is functional.
In data set [12] the test system is Rattus norvegicus. The experiment in a line: Ratio of benperidol ED50 to compound ED50 for methamphetamine-induced stereotyped behavior in po dosed albino Wistar rat. Format: functional.

Broadly, the ED50 is the midpoint of the dose-response relation. A word on the LD50: it is the dose expected to kill half of the subjects tested.

A value given as a limit tells only on which side of the number the result lay.

On to `O=C(CCCN1CCC(n2cnc3ccccc32)CC1)c1ccc(F)cc1`, for which the median effective dose (ED50) is above 3 mg/kg in the data set on Mus musculus [1] and 4.7 mg/kg in the data set on Mus musculus [2].
For `Cc1nc2ccccc2n1C1CCN(CCCC(=O)c2ccc(F)cc2)CC1`, in that order: 0.81 mg/kg and 0.85 mg/kg.
For `CCc1nc2ccccc2n1C1CCN(CCCC(=O)c2ccc(F)cc2)CC1.Cl`, the median effective dose (ED50) was above 3 mg/kg in the data set with Mus musculus [1] and 9.1 mg/kg in the data set with Mus musculus [2].
For `CCCCc1nc2ccccc2n1C1CCN(CCCC(=O)c2ccc(F)cc2)CC1.Cl`, in that order: above 3 mg/kg and 14 mg/kg.
The corresponding values for `Cl.O=C(CCCN1CCC(n2c(-c3ccccc3)nc3ccccc32)CC1)c1ccc(F)cc1` are above 3 mg/kg and 18 mg/kg.
On to `O=C(CCCN1CCC(n2c(C(F)(F)F)nc3ccccc32)CC1)c1ccc(F)cc1`, for which the ED50 with Mus musculus [2] was above 40 mg/kg.
With `CSc1nc2ccccc2n1C1CCN(CCCC(=O)c2ccc(F)cc2)CC1`, the entries for the “Ratio ED50” value in the data set on Rattus norvegicus [3] and in the data set on Rattus norvegicus [8] were 5.5 and 2.7, respectively. The ED50 is 0.2 mg/kg in the data set with Rattus norvegicus [4]; 0.68 mg/kg in the data set with Mus musculus [1]; 0.41 mg/kg in the data set with Rattus norvegicus [5]; 1.1 mg/kg in the data set with Rattus norvegicus [6]; 6.2 mg/kg in the data set with Mus musculus [2]. Moreover, the LD50 at 168 h in data set [7] came out at 930 mg/kg.
As for `CCSc1nc2ccccc2n1C1CCN(CCCC(=O)c2ccc(F)cc2)CC1.Cl`, the ED50 with Mus musculus [1] is above 3 mg/kg; with Mus musculus [2] it was 5 mg/kg.
For `Br.CC(C)Sc1nc2ccccc2n1C1CCN(CCCC(=O)c2ccc(F)cc2)CC1`, in that order: 1.6 mg/kg and 4.4 mg/kg.
For the compound `O=C(CCCN1CCC(n2c(SCCO)nc3ccccc32)CC1)c1ccc(F)cc1`, the ED50 was above 3 mg/kg in the data set with Mus musculus [1] and 6.9 mg/kg with Mus musculus [2].
The corresponding values for `O=C(CCCSc1nc2ccccc2n1C1CCN(CCCC(=O)c2ccc(F)cc2)CC1)c1ccc(F)cc1` are above 3 mg/kg and 14 mg/kg.
For `O=C(CCCN1CCC(n2c(SCC(=O)c3ccc(Cl)cc3)nc3ccccc32)CC1)c1ccc(F)cc1`, in that order: 1.6 mg/kg and 5 mg/kg.
For `O=C(CCCN1CCC(n2c(SCc3ccccc3)nc3ccccc32)CC1)c1ccc(F)cc1`, in that order: 0.76 mg/kg and 1.3 mg/kg.
`C#CCSc1nc2ccccc2n1C1CCN(CCCC(=O)c2ccc(F)cc2)CC1.Cl`: the results for the ED50 in the data set on Mus musculus [1] and in the data set with Mus musculus [2] were 0.74 mg/kg and 1.2 mg/kg, respectively.
For the compound `Br.CCOC(=O)CSc1nc2ccccc2n1C1CCN(CCCC(=O)c2ccc(F)cc2)CC1`, the ED50 in the data set with Mus musculus [2] is above 40 mg/kg.
Same read-out and setting: with `O=C(CCCN1CCC(n2c(Sc3ccccc3[N+](=O)[O-])nc3ccccc32)CC1)c1ccc(F)cc1` the figure was 11 mg/kg.
Turning to `CCOC(=O)Sc1nc2ccccc2n1C1CCN(CCCC(=O)c2ccc(F)cc2)CC1`, the ED50 with Mus musculus [1] turned out to be 0.65 mg/kg; with Mus musculus [2], 0.36 mg/kg.
For `CCCCCCC(=O)Sc1nc2ccccc2n1C1CCN(CCCC(=O)c2ccc(F)cc2)CC1.Cl`, in that order: 1.1 mg/kg and 1 mg/kg.
For `Cl.O=C(CCCN1CCC(n2c(SC(=O)c3ccc(Cl)cc3)nc3ccccc32)CC1)c1ccc(F)cc1`, in that order: 0.83 mg/kg and 0.96 mg/kg.
As to `Cl.Cn1c(=S)n(C2CCN(CCCC(=O)c3ccc(F)cc3)CC2)c2ccccc21`, the ED50 in the data set on Mus musculus [2] came to 0.54 mg/kg.
On the same count and under the same terms, under `Br.C=CCn1c(=S)n(C2CCN(CCCC(=O)c3ccc(F)cc3)CC2)c2ccccc21` stands 0.87 mg/kg; under `O=C(CCCN1CCC(n2nnc3ccccc32)CC1)c1ccc(F)cc1`, 33 mg/kg.
For `Cc1nc2ccccc2n(C2CCN(CCCC(=O)c3ccc(F)cc3)CC2)c1=O`, the values for the ED50 in the data set on Mus musculus [1] and in the data set with Mus musculus [2] were above 3 mg/kg and 14.1 mg/kg, respectively.
Take `CC(=O)O.O=C(CCCN1CCC(n2c(=O)c(O)nc3ccccc32)CC1)c1ccc(F)cc1`: the values for the ED50 in the data set with Mus musculus [1] and in the data set on Mus musculus [2] were above 3 mg/kg and above 40 mg/kg, respectively.
With `Cc1nc2ccccc2n1C1CCN(CCCC(c2ccc(F)cc2)c2ccc(F)cc2)CC1`, the ED50 in the data set on Mus musculus [1] is above 3 mg/kg; in the data set on Mus musculus [2] it was 40 mg/kg.
For `Fc1ccc(C(CCCN2CCC(n3c(=S)[nH]c4ccccc43)CC2)c2ccc(F)cc2)cc1`, in that order: 1 mg/kg and 20 mg/kg.
`CSc1nc2ccccc2n1C1CCN(CCCC(c2ccc(F)cc2)c2ccc(F)cc2)CC1`: the ED50 in the data set on Mus musculus [1] was determined as 2.4 mg/kg; with Mus musculus [2], 13 mg/kg.
Take `OCCSc1nc2ccccc2n1C1CCN(CCCC(c2ccc(F)cc2)c2ccc(F)cc2)CC1`: the ED50 with Mus musculus [1] was above 3 mg/kg; in the data set on Mus musculus [2] it was 40 mg/kg.
For `O=C(CCCN1CCC(n2c(O)nc3ccccc32)CC1)c1ccc(F)cc1` [BENPERIDOL], the figures for the “Ratio ED50” value in the data set with Rattus norvegicus [3] and in the data set with Rattus norvegicus [8] were 2.1 and 1.5, respectively. Also, the ED50 stood at 0.44 mg/kg in the data set with Rattus norvegicus [4]; 0.63 mg/kg in the data set with Mus musculus [1]; 0.62 mg/kg in the data set on Rattus norvegicus [5]; 0.92 mg/kg in the data set with Rattus norvegicus [6]; 0.56 mg/kg in the data set on Mus musculus [2].
In the case of `O=C(CCCN1CCC(O)(c2ccc(Cl)cc2)CC1)c1ccc(F)cc1` [HALOPERIDOL], the “Ratio ED50” value with Rattus norvegicus [3] was 1.8; in the data set on Rattus norvegicus [8], 1. Also, the ED50 in the data set on Rattus norvegicus [4] is 0.5 mg/kg; in the data set on Mus musculus [1], 0.32 mg/kg; in the data set on Rattus norvegicus [5], 0.85 mg/kg; in the data set with Rattus norvegicus [6], 0.88 mg/kg; with Mus musculus [2], 0.8 mg/kg. For the same compound, in [7], the LD50 at 168 h came out at 240 mg/kg.
As to `O=c1[nH]c2ccccc2n1C1CCN(CCCC(c2ccc(F)cc2)c2ccc(F)cc2)CC1` [PIMOZIDE], the ED50 with Mus musculus [1] was 1.1 mg/kg; in the data set on Mus musculus [2], 7.4 mg/kg.
For `O=C(CCCN1CCC(n2c(=S)[nH]c3ccccc32)CC1)c1ccc(F)cc1` [TIMIPERONE], the “Ratio ED50” value with Rattus norvegicus [9] is on record as 9.3; in the data set on Rattus norvegicus [3], 6.1; with Rattus norvegicus [10], 8.9; in the data set with Rattus norvegicus [11] it was 6.5; in the data set on Rattus norvegicus [12], 8.1; in the data set with Rattus norvegicus [8], 4.5. The ED50 in the data set with Rattus norvegicus [4] is 0.054 mg/kg; with Mus musculus [1], 0.55 mg/kg; in the data set on Rattus norvegicus [5], 0.095 mg/kg; with Rattus norvegicus [6], 0.33 mg/kg; in the data set with Mus musculus [2], 0.6 mg/kg. Also, the LD50 at 168 h in data set [7] is 500 mg/kg.

Values taken from ChEMBL document CHEMBL3272239, “Psychotropic agents. 3. 4-(4-Substituted piperidinyl)-1-(4-fluorophenyl)-1-butanones with potent neuroleptic activity” (J Med Chem, 1978).
